# According to patent US10676446B2, “Bicyclic quinazolinone derivatives” (Hoffmann-La Roche Inc., priority 2015, dated 2020):
# Molecular target: human ATX (autotaxin, ENPP2), His-tagged (Homo sapiens (Human), UniProt Q13822)
# Assay: Human ATX enzyme inhibition assay (fluorescence quenching, MR121 substrate)
# Type: biochemical
# Conditions: 30 nM ATX, 1 μM MR121 substrate, 30° C., pH 8.0
# Outline: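 His-tagged human ATX (30 nM final) preincubated 15 min at 30 °C with serially diluted compound in Tris-HCl pH 8.0 buffer with Ca2+, Mg2+ and 0.01% Triton X-100. MR121-labelled fluorescence-quenched substrate then added (1 μM final) for a further 15 min at 30 °C; fluorescence read-out.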
row,Structure (SMILES),IC50
1,O=C(Cn1cnc2ccc(N3CCN(CC4CCOCC4)CC3)cc2c1=O)NCc1ccc(Cl)c(Cl)c1 [Example 98],44 nM
2,CC(=O)N1CCN(c2ccc3ncn(CC(=O)N(C)Cc4ccc(Cl)cc4)c(=O)c3c2)CC1 [Example 43],112 nM
3,O=C(Cn1cnc2ccc(N3CCN(C(=O)C4CCCC4)CC3)cc2c1=O)NCc1ccc(Cl)c(Cl)c1 [Example 64],4 nM
4,COCC(=O)N1CCC(c2ccc3ncn(CC(=O)N(C)Cc4ccc(Cl)c(Cl)c4)c(=O)c3c2)CC1 [Example 171],3 nM
5,CC(=O)N1CCN(c2ccc3ncn(CC(=O)NC(CC(=O)NCc4ccccc4)c4ccc(C(F)(F)F)cc4)c(=O)c3c2)CC1 (centres unmarked) [Example 8],279 nM
6,O=C(Cn1cnc2ccc(N3CCN(Cc4cnc[nH]4)CC3)cc2c1=O)NCc1ccc(Cl)c(Cl)c1 [Example 101],64 nM
7,CN(Cc1ccc(Cl)c(Cl)c1)C(=O)Cn1cnc2ccc(N3CCN(CC(=O)Nc4ccccc4)CC3)cc2c1=O [Example 112],71 nM
8,"CC(=O)N1CCN(c2ccc3ncn(CC(=O)N(C)Cc4ccc(C#N)c(Cl)c4)c(=O)c3c2)CC1 [Example 56, 2-[6-(4-Acetylpiperazin-1-yl)-4-oxoquinazolin-3-yl]-N-[(3-chloro-4-cyanophenyl)methyl]-N-methylacetamide]",8 nM
9,"CC(=O)N1CCC(c2cc(F)c3ncn(CC(=O)N(C)Cc4ccc(C#N)c(Cl)c4)c(=O)c3c2)CC1 [Example 187, 2-[6-(1-Acetylpiperidin-4-yl)-8-fluoro-4-oxoquinazolin-3-yl]-N-[(3-chloro-4-cyanophenyl)methyl]-N-methylacetamide]",1 nM
10,CC(=O)N1CCN(c2ccc3ncn(CC(=O)NC(CC(=O)Nc4ccccc4)c4ccc(C(F)(F)F)cc4)c(=O)c3c2)CC1 (centres unmarked) [Example 7],84 nM
11,"CC(=O)N1CCN(c2ccc3ncn(C(C)C(=O)NCc4ccc(Cl)c(Cl)c4)c(=O)c3c2)CC1 (centres unmarked) [Example 148, 2-[6-(4-Acetylpiperazin-1-yl)-4-oxoquinazolin-3-yl]-N-[(3,4-dichlorophenyl)methyl]propanamide]",15 nM
12,"COCCC(=O)N1CCC(c2cc3c(=O)n(CC(=O)N(C)Cc4ccc(C#N)c(Cl)c4)cnc3cn2)CC1 [Example 190, N-[(3-Chloro-4-cyanophenyl)methyl]-2-[6-[1-(3-methoxypropanoyl)piperidin-4-yl]-4-oxopyrido[3,4-d]pyrimidin-3-yl]-N-methylacetamide]",1 nM
13,"COC(=O)CCN(Cc1ccc(Cl)c(Cl)c1)C(=O)Cn1cnc2ccc(N3CCN(C(C)=O)CC3)cc2c1=O [Example 53, Methyl 3-[[2-[6-(4-acetylpiperazin-1-yl)-4-oxoquinazolin-3-yl]acetyl]-[(3,4-dichlorophenyl)methyl]amino]propanoate]",18 nM
14,CO[C@H](C)C(=O)N1CCC(c2ccc3ncn(CC(=O)N(C)Cc4ccc(C#N)c(Cl)c4)c(=O)c3c2)CC1 [Example 158],2 nM
15,O=C(Cn1cnc2ccc(N3CCN(C(=O)NC4CC4)CC3)cc2c1=O)NCc1ccc(Cl)c(Cl)c1 [Example 83],30 nM
16,"CN(Cc1ccc(Cl)c(C#N)c1)C(=O)Cn1cnc2ccc(N3CCCN(CC4CCOC4)CC3)cc2c1=O (centres unmarked) [Example 130, N-[(4-Chloro-3-cyanophenyl)methyl]-N-methyl-2-[4-oxo-6-[4-(oxolan-3-ylmethyl)-1,4-diazepan-1-yl]quinazolin-3-yl]acetamide]",111 nM
17,"CN(Cc1ccc(Cl)c(C#N)c1)C(=O)Cn1cnc2ccc(C3CCN(CC4CCOC4)CC3)cc2c1=O (centres unmarked) [Example 144, N-[(4-Chloro-3-cyanophenyl)methyl]-N-methyl-2-[4-oxo-6-[1-(oxolan-3-ylmethyl)piperidin-4-yl]quinazolin-3-yl]acetamide]",86 nM
18,"CC(=O)N1CCN(c2ccc3ncn(CC(=O)N(C)Cc4cc(F)c(C#N)c(F)c4)c(=O)c3c2)CC1 [Example 58, 2-[6-(4-Acetylpiperazin-1-yl)-4-oxoquinazolin-3-yl]-N-[(4-cyano-3,5-difluorophenyl)methyl]-N-methylacetamide]",15 nM
19,"CC(=O)N1CCC(O)(c2ccc3ncn(CC(=O)N(C)Cc4ccc(Cl)c(Cl)c4)c(=O)c3c2)CC1 [Example 184, 2-[6-(1-Acetyl-4-hydroxypiperidin-4-yl)-4-oxoquinazolin-3-yl]-N-[(3,4-dichlorophenyl)methyl]-N-methylacetamide]",86 nM
20,COc1cc(C#N)ccc1CNC(=O)Cn1cnc2ccc(N3CCN(C(C)=O)CC3)cc2c1=O [Example 32],89 nM
21,"CN(Cc1ccc(C#N)c(Cl)c1)C(=O)Cn1cnc2ccc(N3CCN(CC4CCOC4)CC3)cc2c1=O (centres unmarked) [Example 114, N-[(3-Chloro-4-cyanophenyl)methyl]-N-methyl-2-[4-oxo-6-[4-(oxolan-3-ylmethyl)piperazin-1-yl]quinazolin-3-yl]acetamide]",26 nM
22,CC(=O)N1CCN(c2ccc3ncn(CC(=O)NC(CC(=O)NCC(C)C)c4ccc(C(F)(F)F)cc4)c(=O)c3c2)CC1 (centres unmarked) [Example 6],979 nM
23,CC(=O)N1CCCN(c2ccc3ncn(CC(=O)NCc4ccc(C(F)(F)F)cc4)c(=O)c3c2)CC1 [Example 119],649 nM
24,"COC(=O)CN1CCN(c2ccc3ncn(CC(=O)NCc4ccc(Cl)c(Cl)c4)c(=O)c3c2)CC1 [Example 93, Methyl 2-[4-[3-[2-[(3,4-dichlorophenyl)methylamino]-2-oxoethyl]-4-oxoquinazolin-6-yl]piperazin-1-yl]acetate]",29 nM

row,Structure (SMILES),IC50
1,"N#Cc1ccc(CNC(=O)Cn2cnc3ccc(N4CCN(C(=O)C5COC5)CC4)cc3c2=O)c(Cl)c1 [Example 113, N-[(2-Chloro-4-cyanophenyl)methyl]-2-[6-[4-(oxetane-3-carbonyl)piperazin-1-yl]-4-oxoquinazolin-3-yl]acetamide]",202 nM
2,CC(=O)N1CCN(c2ccc3ncn(CC(=O)NCc4ccc(F)c(OC(F)(F)F)c4)c(=O)c3c2)CC1 [Example 26],51 nM
3,CN(Cc1ccc(C#N)c(Cl)c1)C(=O)Cn1cnc2ccc(C3CCN(C(=O)C4CC(F)C4)CC3)cc2c1=O (centres unmarked) [Example 138],3 nM
4,O=C(Cn1cnc2ccc(N3CCN(C(=O)C4CCCCC4)CC3)cc2c1=O)NCc1ccc(Cl)c(Cl)c1 [Example 65],10 nM
5,CC(=O)N1CCN(c2ccc3ncn(CC(=O)NCc4ccc(Cl)cn4)c(=O)c3c2)CC1 [Example 12],148 nM
6,"CNC(=O)CN1CCN(c2ccc3ncn(CC(=O)N(C)Cc4ccc(Cl)c(Cl)c4)c(=O)c3c2)CC1 [Example 107, N-[(3,4-Dichlorophenyl)methyl]-N-methyl-2-[6-[4-[2-(methylamino)-2-oxoethyl]piperazin-1-yl]-4-oxoquinazolin-3-yl]acetamide]",67 nM
7,COCCC(=O)N1CCC(c2ccc3ncn(CC(=O)N(C)Cc4ccc(C#N)c(Cl)c4)c(=O)c3c2)CC1 [Example 134],1 nM
8,CC(=O)N1CCN(c2ccc3ncn(CC(=O)NCc4ccc(Cl)c(C(F)(F)F)c4)c(=O)c3c2)CC1 [Example 34],24 nM
9,"CCN(Cc1ccc(Cl)c(Cl)c1)C(=O)Cn1cnc2ccc(N3CCN(C(C)=O)CC3)cc2c1=O [Example 116, 2-[6-(4-Acetylpiperazin-1-yl)-4-oxoquinazolin-3-yl]-N-[(3,4-dichlorophenyl)methyl]-N-ethylacetamide]",16 nM
10,COCCNC(=O)N1CCN(c2ccc3ncn(CC(=O)NCc4ccc(Cl)c(Cl)c4)c(=O)c3c2)CC1 [Example 85],61 nM
11,C[C@H](O)C(=O)N1CCC(c2ccc3ncn(CC(=O)N(C)Cc4ccc(Cl)c(Cl)c4)c(=O)c3c2)CC1 [Example 175],15 nM
12,CN(Cc1ccc(Cl)c(Cl)c1)C(=O)Cn1cnc2ccc(N3CCN(CC(=O)N4CCOCC4)CC3)cc2c1=O [Example 111],35 nM
13,CN(Cc1ccc(Cl)c(Cl)c1)C(=O)Cn1cnc2ccc(N3CCN(C(=O)C4COC4)CC3)cc2c1=O [Example 79],10 nM
14,"CN(Cc1ccc(Cl)c(Cl)c1)C(=O)Cn1cnc2ccc(N3CCN(CC4CC4)CC3)cc2c1=O [Example 104, 2-[6-[4-(Cyclopropylmethyl)piperazin-1-yl]-4-oxoquinazolin-3-yl]-N-[(3,4-dichlorophenyl)methyl]-N-methylacetamide]",64 nM
15,"COC(=O)N1CCC(c2ccc3ncn(CC(=O)N(C)Cc4ccc(C#N)c(Cl)c4)c(=O)c3c2)CC1 [Example 160, Methyl 4-[3-[2-[(3-chloro-4-cyanophenyl)methyl-methylamino]-2-oxoethyl]-4-oxoquinazolin-6-yl]piperidine-1-carboxylate]",158 nM
16,O=C(Cn1cnc2ccc(N3CCN(C(=O)C(F)(F)F)CC3)cc2c1=O)NCc1ccc(Cl)c(Cl)c1 [Example 62],11 nM
17,CC(=O)N1CCN(c2ccc3ncn(CC(=O)NCc4ccc(C(F)(F)F)nc4)c(=O)c3c2)CC1 [Example 16],207 nM
18,"CC(=O)N1CCN(c2ccc3nc(C)n(CC(=O)NCc4ccc(Cl)c(Cl)c4)c(=O)c3c2)CC1 [Example 151, 2-[6-(4-Acetylpiperazin-1-yl)-2-methyl-4-oxoquinazolin-3-yl]-N-[(3,4-dichlorophenyl)methyl]acetamide]",21 nM
19,C[C@@H](O)C(=O)N1CCC(c2ccc3ncn(CC(=O)N(C)Cc4ccc(Cl)c(Cl)c4)c(=O)c3c2)CC1 [Example 174],2 nM
20,COCC(=O)N1CCC(c2ccc3ncn(CC(=O)N(C)Cc4ccc(C#N)c(Cl)c4)c(=O)c3c2)CC1 [Example 132],12 nM
21,COC(C)C(=O)N1CCC(c2ccc3ncn(CC(=O)N(C)Cc4ccc(C#N)c(Cl)c4)c(=O)c3c2)CC1 (centres unmarked) [Example 133],1 nM
22,O=C(Cn1cnc2ccc(N3CCN(C(=O)C4CCOCC4)CC3)cc2c1=O)NCc1ccc(Cl)c(Cl)c1 [Example 66],190 nM
23,"CN(Cc1ccc(C#N)c(Cl)c1)C(=O)Cn1cnc2ccc(C3CCN(C(=O)CO[N+](=O)[O-])CC3)cc2c1=O [Example 186, [2-[4-[3-[2-[(3-Chloro-4-cyanophenyl)methyl-methylamino]-2-oxoethyl]-4-oxoquinazolin-6-yl]piperidin-1-yl]-2-oxoethyl]nitrate]",4 nM
